One data set has as its target GSK3β (Homo sapiens, UniProt P49841). Description: Inhibitory activity against GSK3β (33P-ATP phosphorylation of prephosphorylated GS1 peptide). It counts as biochemical. Conditions: protocol 4: commercial GSK3beta (Millipore), 7.5 μM GS1 peptide, 10 μM ATP, 50 mM Hepes pH 7.2, 90 minutes at room temperature. How it is done: Four different protocols can be used. In a first protocol: 7.5 μM of prephosphorylated GS1 peptide and 10 μM ATP (containing 300,000 cpm of ^33P-ATP) were incubated in 25 mM Tris-HCl, pH 7.5, 0.6 mM DTT, 6 mM MgCl2, 0.6 mM EGTA, 0.05 mg/ml BSA buffer for 1 hour at room temperature in the presence of GSK3beta (total reaction volume: 100 microliters). In a second protocol: 4.1 μM of prephosphorylated GS1 peptide and 42 μM ATP (containing 260,000 cpm ^33P-ATP) were incubated in 80 mM Mes-NaOH, pH 6.5, 1 mM Mg acetate, 0.5 mM EGTA, 5 mM 2-mercaptoethanol, 0.02% Tween 20, 10% glycerol buffer for 2 hours at room temperature in the presence of GSK3beta. In a third protocol: 7.5 μM of prephosphorylated GS1 peptide and 10 μM ATP (containing 300,000 cpm of ^33P-ATP) were incubated in 50 mM Hepes, pH 7.2, 1 mM DTT, 1 mM MgCl2, 1 mM EGTA, 0.01% Tween 20 buffer for one hour at room temperature in the presence of GSK3beta (total reaction volume: 100 microliters). In a fourth protocol: 7.5 μM of prephosphorylated GS1 peptide and 10 μM ATP (containing 300,000 cpm of ^33P-ATP) were incubated in 50 mM Hepes, pH 7.2, 1 mM DTT, 1 mM MgCl2, 1 mM EGTA, 0.01% Tween 20 buffer for 90 minutes at room temperature in the presence of commercial GSK3beta (Millipore) (total reaction volume: 100 microliters). Inhibitors were solubilised in DMSO (final solvent concentration in the reaction medium, 1%). The reaction was stopped with 100 microliters of a solution made of 25 g polyphosphoric acid (85% P2O5), 126 ml 85% H3PO4, H2O to 500 ml and then diluted to 1:100 before use. An aliquot of the reaction mixture was then transferred to Whatman P81 cation exchange filters and rinsed with the solution described above. Incorporated ^33P radioactivity was determined by liquid scintillation spectrometry. The phosphorylated GS-1 peptide had the following sequence: NH2-[…](P)EDEE-COOH. (Woodgett, J. R. (1989) Analytical Biochemistry 180, 237-241.

Where a name gives a salt, the structure may show the parent alone.

Chain of GSK3β (P49841 whole entry): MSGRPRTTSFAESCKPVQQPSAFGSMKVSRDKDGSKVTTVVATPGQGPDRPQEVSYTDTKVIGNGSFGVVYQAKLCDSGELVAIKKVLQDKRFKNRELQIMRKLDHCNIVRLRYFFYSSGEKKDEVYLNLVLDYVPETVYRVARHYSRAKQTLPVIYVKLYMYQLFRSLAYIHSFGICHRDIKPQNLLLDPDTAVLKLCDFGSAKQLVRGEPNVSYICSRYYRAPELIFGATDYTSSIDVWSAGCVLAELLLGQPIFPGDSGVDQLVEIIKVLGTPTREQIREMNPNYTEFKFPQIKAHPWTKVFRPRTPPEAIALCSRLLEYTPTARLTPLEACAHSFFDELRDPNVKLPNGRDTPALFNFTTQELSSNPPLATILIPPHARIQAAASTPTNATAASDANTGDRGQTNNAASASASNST

Take `CCOC(=O)N1CCn2c(nc(-c3ccncc3)cc2=O)C(NC(=O)c2cccc3c2OCC3)C1` (racemic) [compound 8, (+/−)-9-[(2,3-Dihydro-benzofuran-7-carbonyl)-amino]-4-oxo-2-pyridin-4-yl-5,6,8,9-tetrahydro-4H-1,4-a,7-thaza-benzocycloheptene-7-carboxylic acid ethyl ester]: the melting point (as a rule, the temperature, or range, at which the solid turns liquid) is 284 to 286 °C. On GSK3β, the IC50 (as a rule, the concentration at which inhibition is half-maximal) came out at 109 nM.

Compound `O=C(NC1CNCCn2c1nc(-c1ccncc1)cc2=O)c1cc(F)cc2c1OCOC2` (racemic) (as salt: HCl) [Compound No. 26, (+/−)-6-Fluoro-4H-benzo[1,3]dioxine-8-carboxylic acid (4-oxo-2-pyridin-4-yl-4,5,6,7,8,9-hexahydro-1,4a,7-triaza-benzocyclohepten-9-yl)-amide] came in with a melting point of 232 to 234 °C.

In the case of `CCOC(=O)N1CCn2c(nc(-c3ccncn3)cc2=O)C(NC(=O)c2ccc3ncccc3n2)C1` (racemic) [Compound No. 1, (+/−)-9-[([1,5]Naphthyridine-2-carbonyl)-amino]-4-oxo-2-pyrimidin-4-yl-5,6,8,9-tetrahydro-4H-1,4a,7-triaza-benzocycloheptene-7-carboxylic acid ethyl ester], the melting point was in the range of 284 to 286 °C. Besides, the IC50 at GSK3β is 73 nM.

With `O=C(NC1CNCCn2c1nc(-c1ccncc1)cc2=O)c1cc(F)cc2c1OCOC2` (racemic) [Compound No. 26, (+/−)-6-Fluoro-4H-benzo[1,3]dioxine-8-carboxylic acid (4-oxo-2-pyridin-4-yl-4,5,6,7,8,9-hexahydro-1,4a,7-triaza-benzocyclohepten-9-yl)-amide], the IC50 on GSK3β was found to be 12 nM.

The compound `CN1CCn2c(nc(-c3ccncn3)cc2=O)C(NC(=O)c2cc(Cl)c(N)c3c2OCCO3)C1` (racemic) [compound 22, (+/−)-8-Amino-7-chloro-2,3-dihydro-benzo[1,4]dioxine-5-carboxylic acid (7-methyl-4-oxo-2-pyrimidin-4-yl-4,5,6,7,8,9-hexahydro-1,4a,7-triaza-benzocyclohepten-9-yl)-amide] returned a melting point of 169 to 171 °C. The compound further yielded a 50% inhibitory concentration (IC50) against GSK3β of 47 nM.

(Values after US8507475B2, “Substituted heteroarylamide diazepinopyrimidone derivatives” (Sanofi, priority 2008, dated 2013).)
